Patent publication US20240217989A1, “Heteroaryl Fluoroalkenes As DGK Inhibitors” (Incyte Corporation, priority 2022, published 2024)

Columns and labels:
[1] = target: T1, DGKα (Homo sapiens, UniProt P23743); assay: In vitro DGKα inhibition assay (ADP-Glo); assay type: biochemical; conditions: His-tagged human recombinant enzyme; 0.1 nM DGKα, 50 μM ATP, 20 μM DLG; 90 minute incubation; ADP-Glo luminescence
T1 construct: His; purchased Signal Chem D21-10BH
Method in brief: (§1)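 His-tagged human recombinant enzymes with DLG lipid substrate (20 μM) in Tris pH 7.5 buffer with MgCl2/CaCl2; DGKα 0.1 nM with 50 μM ATP, DGKζ 0.4 nM with 30 μM ATP.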

[2] = target: DGKζ (Homo sapiens, UniProt Q13574); assay: In vitro DGKζ inhibition assay (ADP-Glo); assay type: biochemical; conditions: His-tagged human recombinant enzyme; 0.4 nM DGKζ, 30 μM ATP, 20 μM DLG; 90 minute incubation; ADP-Glo luminescence
Method in brief: as §1

DGKζ, sequence (Q13574 whole entry): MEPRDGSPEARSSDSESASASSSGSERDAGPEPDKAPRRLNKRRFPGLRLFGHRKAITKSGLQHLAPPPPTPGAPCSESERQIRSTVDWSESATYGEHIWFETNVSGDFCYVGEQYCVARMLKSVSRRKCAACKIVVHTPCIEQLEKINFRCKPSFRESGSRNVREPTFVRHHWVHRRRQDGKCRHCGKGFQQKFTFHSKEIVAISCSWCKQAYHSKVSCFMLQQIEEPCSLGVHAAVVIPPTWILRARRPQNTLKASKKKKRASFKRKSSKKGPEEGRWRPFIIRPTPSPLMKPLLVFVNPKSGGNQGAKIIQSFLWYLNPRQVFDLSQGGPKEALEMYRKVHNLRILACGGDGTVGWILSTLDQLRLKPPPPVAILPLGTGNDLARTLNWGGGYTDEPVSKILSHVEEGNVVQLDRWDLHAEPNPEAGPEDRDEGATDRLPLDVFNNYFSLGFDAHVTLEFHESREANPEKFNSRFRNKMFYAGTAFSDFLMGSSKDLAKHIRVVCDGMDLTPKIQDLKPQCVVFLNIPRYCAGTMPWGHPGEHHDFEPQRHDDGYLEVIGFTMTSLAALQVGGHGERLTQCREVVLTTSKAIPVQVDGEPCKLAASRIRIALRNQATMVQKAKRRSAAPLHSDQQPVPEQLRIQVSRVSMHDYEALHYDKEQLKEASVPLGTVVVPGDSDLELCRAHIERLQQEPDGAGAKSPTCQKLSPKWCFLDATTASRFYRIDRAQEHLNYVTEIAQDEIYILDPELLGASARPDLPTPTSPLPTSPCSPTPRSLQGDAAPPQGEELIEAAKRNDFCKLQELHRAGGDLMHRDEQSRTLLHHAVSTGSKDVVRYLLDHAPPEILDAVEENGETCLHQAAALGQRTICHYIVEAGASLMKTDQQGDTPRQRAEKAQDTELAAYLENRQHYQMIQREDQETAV
T1 sequence (P23743 whole entry): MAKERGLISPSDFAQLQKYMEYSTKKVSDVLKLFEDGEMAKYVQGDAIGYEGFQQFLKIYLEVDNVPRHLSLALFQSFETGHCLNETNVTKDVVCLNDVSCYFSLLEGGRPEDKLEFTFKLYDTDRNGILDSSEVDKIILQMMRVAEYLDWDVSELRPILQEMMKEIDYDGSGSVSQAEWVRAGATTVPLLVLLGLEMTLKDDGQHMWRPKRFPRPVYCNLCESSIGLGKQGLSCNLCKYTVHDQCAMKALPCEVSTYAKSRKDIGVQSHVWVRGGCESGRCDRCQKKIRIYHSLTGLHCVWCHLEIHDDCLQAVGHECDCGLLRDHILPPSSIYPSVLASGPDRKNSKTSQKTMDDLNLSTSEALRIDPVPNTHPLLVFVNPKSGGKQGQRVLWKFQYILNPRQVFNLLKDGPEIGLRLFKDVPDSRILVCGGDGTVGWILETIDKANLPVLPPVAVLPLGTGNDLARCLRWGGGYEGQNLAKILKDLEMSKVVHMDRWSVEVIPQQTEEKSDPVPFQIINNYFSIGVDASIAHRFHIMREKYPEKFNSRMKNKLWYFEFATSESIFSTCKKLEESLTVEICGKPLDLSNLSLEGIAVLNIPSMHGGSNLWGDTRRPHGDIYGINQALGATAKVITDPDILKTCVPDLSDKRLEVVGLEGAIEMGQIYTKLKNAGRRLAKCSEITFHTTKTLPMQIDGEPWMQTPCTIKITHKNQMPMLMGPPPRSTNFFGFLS

Structure (SMILES) | IC50 [1] [nM] | IC50 [2] [nM]
OCCN1CCC2(CCCN(c3c(/C=C(\F)c4nccc(-c5cnsc5)n4)ccc(Oc4ccccc4F)c3C(F)(F)F)C2)CC1 [Example 45, (Z)-2-(2-(6-(2-Fluoro-2-(4-(isothiazol-4-yl)pyrimidin-2-yl)vinyl)-3-(2-fluorophenoxy)-2-(trifluoromethyl)phenyl)-2,9-diazaspiro[5.5]undecan-9-yl)ethan-1-ol] | ≤ 20 | ≤ 20
F/C(=C\c1ccc(Oc2ccccc2F)c(C(F)(F)F)c1N1CCCC2(CCN(CC3CC3)CC2)C1)c1cncc(-c2cnsc2)n1 [Example 56, (Z)-4-(6-(2-(2-(9-(Cyclopropylmethyl)-2,9-diazaspiro[5.5]undecan-2-yl)-4-(2-fluorophenoxy)-3-(trifluoromethyl)phenyl)-1-fluorovinyl)pyrazin-2-yl)isothiazole] | ≤ 20 | ≤ 20
CCN1CCC2(CCCN(c3c(/C=C(\F)c4nccc(-c5cnsc5)n4)ccc(Oc4ccccc4F)c3C(F)(F)F)C2)CC1 [Example 46, (Z)-4-(2-(2-(2-(9-Ethyl-2,9-diazaspiro[5.5]undecan-2-yl)-4-(2-fluorophenoxy)-3-(trifluoromethyl)phenyl)-1-fluorovinyl)pyrimidin-4-yl)isothiazole] | ≤ 20 | ≤ 20
CCN1CCC2(CC1)CN(c1c(/C=C(\F)c3cncc(-c4ccnnc4)n3)ccc(OC3CC3)c1C(F)(F)F)CCO2 [Example 14, (Z)-4-(3-Cyclopropoxy-6-(2-fluoro-2-(6-(pyridazin-4-yl)pyrazin-2-yl)vinyl)-2-(trifluoromethyl)phenyl)-9-ethyl-1-oxa-4,9-diazaspiro[5.5]undecane] | 20 to 200 | 20 to 200
N#Cc1ncc(N2CC(F)(F)C2)nc1/C(F)=C/c1ccc(Oc2ccccc2F)c(C(F)(F)F)c1N1CCC[C@@H](CN)C1 [Example 3, (S,Z)-3-(2-(2-(3-(Aminomethyl)piperidin-1-yl)-4-(2-fluorophenoxy)-3-(trifluoromethyl)phenyl)-1-fluorovinyl)-5-(3,3-difluoroazetidin-1-yl)pyrazine-2-carbonitrile] | ≤ 20 | ≤ 20
COCCN1CCC2(CC1)CN(c1c(/C=C(\F)c3cccc(-c4ccnnc4)n3)ccc(Oc3ccccc3)c1C(F)(F)F)CCO2 [Example 26, (Z)-4-(6-(2-Fluoro-2-(6-(pyridazin-4-yl)pyridin-2-yl)vinyl)-3-phenoxy-2-(trifluoromethyl)phenyl)-9-(2-methoxyethyl)-1-oxa-4,9-diazaspiro[5.5]undecane] | ≤ 20 | ≤ 20
CCN1CCC2(CCCN(c3c(/C=C(\F)c4cncc(N5CCC(F)(F)C5)n4)ccc(Oc4ccccc4F)c3C(F)(F)F)C2)CC1 [Example 58, (Z)-2-(6-(2-(6-(3,3-Difluoropyrrolidin-1-yl)pyrazin-2-yl)-2-fluorovinyl)-3-(2-fluorophenoxy)-2-(trifluoromethyl)phenyl)-9-ethyl-2,9-diazaspiro[5.5]undecane] | ≤ 20 | ≤ 20
F/C(=C\c1ccc(Oc2ccccc2F)c(C(F)(F)F)c1N1CCCC2(CCN(CC3CC3)CC2)C1)c1cncc(N2CC(F)(F)C2)n1 [Example 57, (Z)-9-(Cyclopropylmethyl)-2-(6-(2-(6-(3,3-difluoroazetidin-1-yl)pyrazin-2-yl)-2-fluorovinyl)-3-(2-fluorophenoxy)-2-(trifluoromethyl)phenyl)-2,9-diazaspiro[5.5]undecane] | ≤ 20 | ≤ 20
F/C(=C\c1ccc(Oc2ccccc2)c(C(F)(F)F)c1N1CCOC2(CCN(CC3CC3)CC2)C1)c1cccc(-c2ccnnc2)n1 [Example 27, (Z)-9-(Cyclopropylmethyl)-4-(6-(2-fluoro-2-(6-(pyridazin-4-yl)pyridin-2-yl)vinyl)-3-phenoxy-2-(trifluoromethyl)phenyl)-1-oxa-4,9-diazaspiro[5.5]undecane] | ≤ 20 | ≤ 20
